Reference: patent US20060069132A1, “Azolecarboxamide herbicides” (priority 2004, published 2006)

Key:
corn = assay: Test C pre-/postemergence herbicide test; format: in vivo, Zea mays; conditions: for Corn plant response rating: 500 g ai/ha
Summary of the method: (§1)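 Pre/post spray; non-phytotoxic solvent + surfactant. Post-timing 1–4 leaves, 2–18 cm. Read-out: visual % control vs untreated, day 12–14, greenhouse.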

velvetleaf = assay: Test C pre-/postemergence herbicide test; format: in vivo, Abutilon theophrasti; conditions: for Velvetleaf plant response rating: 500 g ai/ha
Summary of the method: as §1

redroot pigweed = assay: Test A pre-/postemergence herbicide test; format: in vivo, Amaranthus retroflexus
Summary of the method: (§2)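 Greenhouse injury scoring (0–100, complete control = 100) at approximately ten days follows simultaneous pre- and postemergence application. Soil received a directed spray after seeding; seedlings of 2–10 cm at the one- to two-leaf stage were sprayed to runoff.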

Surinam grass = assay: Test C pre-/postemergence herbicide test; format: in vivo, Urochloa decumbens; conditions: for Surinam Grass plant response rating: 500 g ai/ha
Summary of the method: as §1

pigweed = assay: Test C pre-/postemergence herbicide test; format: in vivo, Amaranthus retroflexus; conditions: for Pigweed plant response rating: 500 g ai/ha
Summary of the method: as §1

morningglory [1] = assay: Test A pre-/postemergence herbicide test; format: in vivo, Ipomoea spp.
Summary of the method: as §2

eastern black nightshade = assay: Test C pre-/postemergence herbicide test; format: in vivo, Solanum ptycanthum; conditions: for Plant response rating (0 = no effect, 100 = complete control), Nightshade: 62 g ai/ha; for Plant response rating (0 = no effect, 100 = complete control), Nightshade / Plant response rating, Nightshade: preemergence
Summary of the method: as §1

morningglory [2] = assay: Test C pre-/postemergence herbicide test; format: in vivo, Ipomoea coccinea; design: key to Plant response rating, Morningglory: 0 = no effect, 100 = complete control; conditions: for Morningglory plant response rating: 500 g ai/ha
Summary of the method: as §1

johnsongrass = assay: Test C pre-/postemergence herbicide test; format: in vivo, Sorghum halepense; conditions: for Johnsongrass plant response rating: 500 g ai/ha
Summary of the method: as §1

cocklebur = assay: Test C pre-/postemergence herbicide test; format: in vivo, Xanthium strumarium; conditions: for Cocklebur plant response rating: 500 g ai/ha
Summary of the method: as §1

chickweed = assay: Test C postemergence herbicide test; format: in vivo, Stellaria media
Summary of the method: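 Plants were grown to the 1- to 4-leaf stage (2–18 cm) and then treated postemergence, or grown to the 2-leaf stage for the flooded paddy test. They were held in a greenhouse for 12 to 14 days and then scored by eye against controls, where 0 is no effect and 100 is complete control.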

[3] = 125 g ai/ha, scale 0 (no effect) to 100 (complete control), visual, 12 to 14 days, preemergence
[4] = 250 g ai/ha, scale 0 to 100 (0 no effect, 100 complete control), visual, 12 to 14 days, preemergence
[5] = Postemergence, 250 g ai/ha, scale 0 to 100, 0 no effect, 100 complete control
[6] = Preemergence, scale 0 to 100, 0 no effect, 100 complete control
[7] = postemergence, 125 g ai/ha, scale 0 to 100
[8] = postemergence, 62 g ai/ha, scale 0 to 100
[9] = Postemergence, 500 g ai/ha, 0 to 100 scale, 0 no effect, 100 complete control
[10] = Postemergence, 2000 g ai/ha, 0 to 100 scale, 0 no effect, 100 complete control
[11] = Preemergence, 500 g ai/ha, visual rating, 0 to 100 scale (0 no effect, 100 complete control)
[12] = Preemergence, 2000 g ai/ha, 0 to 100 scale, 0 no effect, 100 complete control
[13] = 125 g ai/ha, scale 0 (no effect) to 100 (complete control), visual, 12 to 14 days
[14] = 31 g ai/ha, preemergence, scale 0 to 100
[15] = Preemergence, 2000 g ai/ha, visual rating, 0 to 100 scale (0 no effect, 100 complete control)
[16] = postemergence, 31 g ai/ha, scale 0 to 100

CCOC(=O)c1cc(NC(=O)c2cc(C(C)(C)C)nn2CC)ccc1OC [Compound 96]
Plant response rating (0 = no effect, 100 = complete control), Corn (corn; 62 g ai/ha, preemergence): 15
Plant response rating, Corn (corn; [3]): 15
Plant response rating, Corn (corn; [4]): 30
Corn plant response rating (corn; Postemergence, scale 0 to 100): 45
Plant response rating, Corn (corn; [5]): 35
Corn plant response rating (corn; [6]): 40
Plant response rating, Corn (corn; [7]): 30
Plant response rating, Corn (corn; [8]): 30
Plant response rating, Velvetleaf (velvetleaf; [3]): 50
Velvetleaf plant response rating (velvetleaf; Postemergence, scale 0 to 100): 95
Plant response rating, Velvetleaf (velvetleaf; [5]): 70
Velvetleaf plant response rating (velvetleaf; [6]): 100
Plant response rating, Velvetleaf (velvetleaf; [7]): 70
Plant response rating, Velvetleaf (velvetleaf; [8]): 40
Pigweed plant response rating (redroot pigweed; [9]): 95
Plant response rating, Pigweed (redroot pigweed; [10]): 100
Pigweed plant response rating (redroot pigweed; [11]): 100
Pigweed plant response rating (redroot pigweed; [12]): 100
Plant response rating (0 = no effect, 100 = complete control), Surinam Grass (Surinam grass; 62 g ai/ha, preemergence): 0
Plant response rating, Surinam Grass (Surinam grass; [3]): 10
Surinam Grass plant response rating (Surinam grass; Postemergence, scale 0 to 100): 60
Plant response rating, Surinam Grass (Surinam grass; [5]): 40
Surinam Grass plant response rating (Surinam grass; [6]): 65
Plant response rating, Surinam Grass (Surinam grass; [7]): 40
Plant response rating, Surinam Grass (Surinam grass; [8]): 0
Plant response rating (0 = no effect, 100 = complete control), Pigweed (pigweed; 62 g ai/ha, preemergence): 100
Plant response rating, Pigweed (pigweed; [3]): 100
Pigweed plant response rating (pigweed; Postemergence, scale 0 to 100): 100
Plant response rating, Pigweed (pigweed; [5]): 100
Pigweed plant response rating (pigweed; [6]): 100
Plant response rating, Pigweed (pigweed; [7]): 100
Plant response rating, Pigweed (pigweed; [8]): 70
Morningglory plant response rating (morningglory [1]; [9]): 10
Plant response rating, Morningglory (morningglory [1]; [10]): 15
Morningglory plant response rating (morningglory [1]; [11]): 25
Morningglory plant response rating (morningglory [1]; [12]): 70
Plant response rating (0 = no effect, 100 = complete control), Nightshade (eastern black nightshade): 90
Plant response rating, Nightshade (eastern black nightshade; [13]): 95
Nightshade plant response rating (eastern black nightshade; Preemergence, 500 g ai/ha, scale 0 to 100, 0 no effect, 100 complete control): 100
Plant response rating (0 = no effect, 100 = complete control), Morningglory (morningglory [2]; 62 g ai/ha, preemergence): 0
Plant response rating, Morningglory (morningglory [2]; [3]): 50
Morningglory plant response rating (morningglory [2]; Postemergence, scale 0 to 100): 50
Plant response rating, Morningglory (morningglory [2]; [5]): 30
Morningglory plant response rating (morningglory [2]; [6]): 100
Plant response rating, Morningglory (morningglory [2]; [7]): 5
Plant response rating, Morningglory (morningglory [2]; [8]): 0
Plant response rating (0 = no effect, 100 = complete control), Johnsongrass (johnsongrass; 62 g ai/ha, preemergence): 40
Plant response rating, Johnsongrass (johnsongrass; [3]): 60
Johnsongrass plant response rating (johnsongrass; Postemergence, scale 0 to 100): 50
Plant response rating, Johnsongrass (johnsongrass; [5]): 50
Johnsongrass plant response rating (johnsongrass; [6]): 95
Plant response rating, Johnsongrass (johnsongrass; [7]): 50
Plant response rating, Johnsongrass (johnsongrass; [8]): 0
Plant response rating (0 = no effect, 100 = complete control), Cocklebur (cocklebur; 62 g ai/ha, preemergence): 0
Plant response rating, Cocklebur (cocklebur; [3]): 5
Plant response rating, Cocklebur (cocklebur; [4]): 20
Cocklebur plant response rating (cocklebur; Postemergence, scale 0 to 100): 95
Plant response rating, Cocklebur (cocklebur; [5]): 90
Cocklebur plant response rating (cocklebur; [6]): 90
Plant response rating, Cocklebur (cocklebur; [7]): 10
Plant response rating, Cocklebur (cocklebur; [8]): 5
Chickweed plant response rating (chickweed; Postemergence, 500 g ai/ha, scale 0 to 100): 100
Plant response rating, Chickweed (chickweed; [5]): 100
Plant response rating, Chickweed (chickweed; [7]): 100
Plant response rating, Chickweed (chickweed; [8]): 100

C=Cn1nc(C(C)(C)C)cc1C(=O)Nc1cccc(C(C)=NO)c1 [Compound 114]
Plant response rating, Corn (corn; [14]): 10
Plant response rating (0 = no effect, 100 = complete control), Corn (corn; 62 g ai/ha, preemergence): 10
Plant response rating, Corn (corn; [3]): 10
Plant response rating, Corn (corn; [4]): 10
Plant response rating, Corn (corn; [5]): 40
Plant response rating, Corn (corn; [7]): 30
Plant response rating, Corn (corn; [8]): 30
Plant response rating, Velvetleaf (velvetleaf; [14]): 0
Plant response rating, Velvetleaf (velvetleaf; [3]): 30
Plant response rating, Velvetleaf (velvetleaf; [5]): 80
Plant response rating, Velvetleaf (velvetleaf; [7]): 70
Plant response rating, Velvetleaf (velvetleaf; [8]): 60
Pigweed plant response rating (redroot pigweed; [9]): 85
Plant response rating, Pigweed (redroot pigweed; [10]): 100
Pigweed plant response rating (redroot pigweed; [11]): 85
Pigweed plant response rating (redroot pigweed; [15]): 90
Plant response rating, Surinam Grass (Surinam grass; [14]): 10
Plant response rating (0 = no effect, 100 = complete control), Surinam Grass (Surinam grass; 62 g ai/ha, preemergence): 10
Plant response rating, Surinam Grass (Surinam grass; [3]): 10
Plant response rating, Surinam Grass (Surinam grass; [5]): 20
Plant response rating, Surinam Grass (Surinam grass; [7]): 10
Plant response rating, Surinam Grass (Surinam grass; [8]): 10
Plant response rating, Pigweed (pigweed; [14]): 0
Plant response rating (0 = no effect, 100 = complete control), Pigweed (pigweed; 62 g ai/ha, preemergence): 100
Plant response rating, Pigweed (pigweed; [3]): 100
Plant response rating, Pigweed (pigweed; [5]): 100
Plant response rating, Pigweed (pigweed; [7]): 100
Plant response rating, Pigweed (pigweed; [8]): 100
Morningglory plant response rating (morningglory [1]; [9]): 10
Plant response rating, Morningglory (morningglory [1]; [10]): 25
Morningglory plant response rating (morningglory [1]; [11]): 35
Morningglory plant response rating (morningglory [1]; [15]): 70
Plant response rating, Nightshade (eastern black nightshade; 31 g ai/ha, scale 0 to 100): 20
Plant response rating (0 = no effect, 100 = complete control), Nightshade (eastern black nightshade): 70
Plant response rating, Nightshade (eastern black nightshade; [13]): 90
Plant response rating, Morningglory (morningglory [2]; [14]): 40
Plant response rating, Morningglory (morningglory [2]; [3]): 60
Plant response rating, Morningglory (morningglory [2]; [7]): 30
Plant response rating, Morningglory (morningglory [2]; [8]): 10
Plant response rating, Johnsongrass (johnsongrass; [14]): 0
Plant response rating (0 = no effect, 100 = complete control), Johnsongrass (johnsongrass; 62 g ai/ha, preemergence): 20
Plant response rating, Johnsongrass (johnsongrass; [3]): 30
Plant response rating, Johnsongrass (johnsongrass; [5]): 70
Plant response rating, Johnsongrass (johnsongrass; [7]): 70
Plant response rating, Johnsongrass (johnsongrass; [8]): 70
Plant response rating, Cocklebur (cocklebur; [14]): 0
Plant response rating (0 = no effect, 100 = complete control), Cocklebur (cocklebur; 62 g ai/ha, preemergence): 20
Plant response rating, Cocklebur (cocklebur; [3]): 20
Plant response rating, Cocklebur (cocklebur; [4]): 30
Plant response rating, Cocklebur (cocklebur; [5]): 30
Plant response rating, Cocklebur (cocklebur; [7]): 30
Plant response rating, Cocklebur (cocklebur; [16]): 30
Plant response rating, Cocklebur (cocklebur; [8]): 30
Plant response rating, Chickweed (chickweed; [5]): 100
Plant response rating, Chickweed (chickweed; [16]): 80
Plant response rating, Chickweed (chickweed; [8]): 100
